Assays:
[1] = system: sunburn cells; conditions: supplementation, humans; cited from earlier work
[2] = system: β-Carotene-15,15′-oxygenase; assay: QRT-PCR gene expression in HaCaT cells with or without UVA; format: cell-based, human
Method: (§1) HaCaT cells were obtained from Prof. Fusenig, German Cancer Research Centre, Heidelberg. […] The accuracy of cell counting was approximately 99%.
(§2) On day 3 of the experiment, cells were washed six times with Ca/Mg-free PBS containing 2% BSA, and then irradiated with light with a Hönle sun lamp Sol 500 (Dr. Hönle, Plannegg, Germany) at a dose of 270 kJ/m^2 in Ca/Mg-free PBS (2 hour exposure time at […]). The experimental schedule was chosen because the cells had optimal UVA sensitivity after 48 hours in culture. […] Confluent cultures were much less sensitive to irradiation.
(§3) After irradiation, the cells were supplied with fresh β-carotene-containing serum-free medium and kept in the incubator at 37° C., 5% CO2 until harvest of the samples. In experiments in which the half-life of ^1O2 was prolonged by D2O to enhance its effect, PBS was prepared in D2O, instead of in H2O, as it was done for the standard conditions described above. Cells were washed twice in D2O-PBS prior to irradiation in D2O-PBS. After irradiation, cells were maintained with fresh β-carotene-containing serum-free medium. Sham controls were treated in an identical manner, by placing them under the solar simulator but shielded from light.
(§4) Total RNA was isolated by using Trizol™ (Invitrogen, Basel, Switzerland) according to the instructions of the manufacturer. Random-primed cDNA was synthesized using the Superscript pre-amplification system for first strand cDNA synthesis (Invitrogen).
(§5) cDNA corresponding to 10 ng total RNA was used as template to quantify the relative RNA expression of the genes of interest by TaqMan® real time PCR.
(§6) The PCR analyses were carried out in triplicate and in a multiplex setup, using 18S rRNA as a calibrator gene. The rRNA primers were used at a final concentration of 50 nM, the probe at 100 nM. For quantification of the genes of interest, the primer concentrations were optimized for sensitivity of template detection. […] PCR reactions were carried out for 40 cycles of 95° C. for 15 seconds and 60° C. for 1 minute in an ABI7700 (Applied Biosystems, Rotkreuz, Switzerland). Regulation of gene expression was calculated as described in user bulletin #2 provided by the manufacturer. A threshold cycle (“CT”) is the first PCR cycle in which an amplification signal is detected. Expression levels are given as δCT values. The δCT value describes the level of gene expression as the average PCR cycle, in which the gene of interest was detected first (CT value), subtracted by the CT value of the calibrator gene 18S rRNA (CTgene of interest−CTcalibrating gene), 18S rRNA served as a measure for the amount of template in the reaction. Routinely, 18S rRNA was detected between PCR cycle 12 and 13 (SE=standard error) A low δCT corresponds to a high mRNA level.
(§7) HaCaT cells were pretreated for 2 days with 0.5, 1.5 or 3 μM β-carotene. The cells were irradiated with UVA (270 kJ/m^2) either in D2O-containing PBS or in H2O-containing PBS, to analyze ^1O2 inducibility of genes. Gene expression 5 hours after UVA irradiation was analyzed by QRT-PCR. Values are geometric means±standard error from three independent experiments. Upregulations greater than 1.5-fold are labelled in bold black, downregulations below 0.66-fold are bold grey.

[3] = system: RXRβ; assay: as above; format: cell-based, human
Method: as §1, §2, §3, §4, §5, §6, §7

[4] = system: RARγ; assay: as above; format: cell-based, human
Method: as §1, §2, §3, §4, §5, §6, §7

[5] = system: β-carotene-9′,10′-oxygenase; assay: as above; format: cell-based, human
Method: as §1, §2, §3, §4, §5, §6, §7

[6] = system: RARβ; assay: as above; format: cell-based, human
Method: as §1, §2, §3, §4, §5, §6, §7

[7] = system: RARα; assay: as above; format: cell-based, human
Method: as §1, §2, §3, §4, §5, §6, §7

[8] = system: retinoic acid response elements (RAREs); assay: RA-dependent reporter gene assay pGL3 (RARE)5 tk luc in HaCaT cells; format: cell-based, human
Method: HaCaT cells were transiently transfected with the reporter construct pGL3 (RARE)5 tk luc, containing five DR5-type retinoic acid response elements (“RAREs”). Luciferase activity was determined after 40 hours treatment with β-carotene. Values are means±standard error from two experiments with four replicates each.
HaCaT cells were seeded at a density of 3×10^6 cells/well in 6 well plates (BD Biosciences, Basel, Switzerland) in FAD medium containing 2% NuSerum. The cells were transfected the next day using 1 μg reporter plasmid (pGL3 (RARE)5 tk luc) and 5 μl Lipofectin (1 μg/μL; Invitrogen, Basel, Switzerland) per well. The RARE is a DR5 element identical to the wild type element of the RARβ2 promoter. The spacing between the DR5 sites is 25 nucleotides. The transfections were performed for 7.5 hours in serum-free FAD medium according to the manufacturer's protocol. […] Transactivation of the reporter gene was determined after 40 hours of β-carotene treatment.
To generate the RA standard curve, 9-cis RA and all-trans RA were used together at concentrations ranging from 10^−10 to 10^−8 M each. […] Relative luciferase units (RLU) were quantified in a luminoskan reader (Thermo Labsystems, Vantaa, Finland), and corrected by protein concentrations as determined with the BCA assay (Pierce, Rockford, USA).

[9] = β-carotene, UVA, D2O treatments

## CC1=C(/C=C/C(C)=C/C=C/C(C)=C/C=C/C=C(C)/C=C/C=C(C)/C=C/C2=C(C)CCCC2(C)C)C(C)(C)CCC1 [β-carotene, All-E-β-carotene]
[1]
  number of sunburn cells: did not alter the number of sunburn cells
[2]; D2O, UVA/βC 0.5 μM
  βC-15,15′-oxygenase fold induction: 1.08 fold
[2]; D2O, UVA/βC 1.5 μM
  βC-15,15′-oxygenase fold induction: 0.90 fold
[2]; D2O, UVA/βC 3 μM
  βC-15,15′-oxygenase fold induction: 0.91 fold
[2]; D2O, βC 0.5 μM
  βC-15,15′-oxygenase fold induction: 1.19 fold
[2]; D2O, βC 1.5 μM
  βC-15,15′-oxygenase fold induction: 1.03 fold
[2]; D2O, βC 3 μM
  βC-15,15′-oxygenase fold induction: 0.43 fold
[2]; H2O, UVA/βC 0.5 μM
  βC-15,15′-oxygenase fold induction: 0.60 fold
[2]; H2O, UVA/βC 1.5 μM
  βC-15,15′-oxygenase fold induction: 0.84 fold
[2]; H2O, UVA/βC 3 μM
  βC-15,15′-oxygenase fold induction: 0.91 fold
[2]; H2O, βC 0.5 μM
  βC-15,15′-oxygenase fold induction: 1.09 fold
[2]; H2O, βC 1.5 μM
  βC-15,15′-oxygenase fold induction: 1.19 fold
[2]; H2O, βC 3 μM
  βC-15,15′-oxygenase fold induction: 1.08 fold
[2]; [9]
  β-Carotene-15,15′-oxygenase RNA level: not significantly influenced
[3]
  basal or UVA-regulated expression level of RXRβ: no significant effect
[3]; D2O, UVA/βC 0.5 μM
  RXRβ fold induction: 1.23 fold
[3]; D2O, UVA/βC 1.5 μM
  RXRβ fold induction: 1.09 fold
[3]; D2O, UVA/βC 3 μM
  RXRβ fold induction: 0.76 fold
[3]; D2O, βC 0.5 μM
  RXRβ fold induction: 1.32 fold
[3]; D2O, βC 1.5 μM
  RXRβ fold induction: 1.17 fold
[3]; D2O, βC 3 μM
  RXRβ fold induction: 1.61 fold
[3]; H2O, UVA/βC 0.5 μM
  RXRβ fold induction: 0.93 fold
[3]; H2O, UVA/βC 1.5 μM
  RXRβ fold induction: 0.71 fold
[3]; H2O, UVA/βC 3 μM
  RXRβ fold induction: 1.04 fold
[3]; H2O, βC 0.5 μM
  RXRβ fold induction: 0.67 fold
[3]; H2O, βC 1.5 μM
  RXRβ fold induction: 0.99 fold
[3]; H2O, βC 3 μM
  RXRβ fold induction: 0.99 fold
[4]
  basal or UVA-regulated expression level of RARγ: no significant effect
[4]; D2O, UVA/βC 0.5 μM
  RARγ fold induction: 0.63 fold
[4]; D2O, UVA/βC 1.5 μM
  RARγ fold induction: 0.67 fold
[4]; D2O, UVA/βC 3 μM
  RARγ fold induction: 0.76 fold
[4]; D2O, βC 0.5 μM
  RARγ fold induction: 0.94 fold
[4]; D2O, βC 1.5 μM
  RARγ fold induction: 1.11 fold
[4]; D2O, βC 3 μM
  RARγ fold induction: 1.12 fold
[4]; H2O, UVA/βC 0.5 μM
  RARγ fold induction: 0.85 fold
[4]; H2O, UVA/βC 1.5 μM
  RARγ fold induction: 0.15 fold
[4]; H2O, UVA/βC 3 μM
  RARγ fold induction: 0.54 fold
[4]; H2O, βC 0.5 μM
  RARγ fold induction: 0.74 fold
[4]; H2O, βC 1.5 μM
  RARγ fold induction: 0.86 fold
[4]; H2O, βC 3 μM
  RARγ fold induction: 0.90 fold
[5]; D2O, UVA/βC 0.5 μM
  βC-9′,10′-oxygenase fold induction: 1.43 fold
[5]; D2O, UVA/βC 1.5 μM
  βC-9′,10′-oxygenase fold induction: 2.30 fold
[5]; D2O, UVA/βC 3 μM
  βC-9′,10′-oxygenase fold induction: 2.19 fold
[5]; D2O, βC 0.5 μM
  βC-9′,10′-oxygenase fold induction: 0.93 fold
[5]; D2O, βC 1.5 μM
  βC-9′,10′-oxygenase fold induction: 1.19 fold
[5]; D2O, βC 3 μM
  βC-9′,10′-oxygenase fold induction: 1.11 fold
[5]; H2O, UVA/βC 0.5 μM
  βC-9′,10′-oxygenase fold induction: 0.75 fold
[5]; H2O, UVA/βC 1.5 μM
  βC-9′,10′-oxygenase fold induction: 0.70 fold
[5]; H2O, UVA/βC 3 μM
  βC-9′,10′-oxygenase fold induction: 0.99 fold
[5]; H2O, βC 0.5 μM
  βC-9′,10′-oxygenase fold induction: 0.90 fold
[5]; H2O, βC 1.5 μM
  βC-9′,10′-oxygenase fold induction: 0.85 fold
[5]; H2O, βC 3 μM
  βC-9′,10′-oxygenase fold induction: 0.76 fold
[5]; [9]
  β-carotene-9′,10′-oxygenase RNA level: not significantly influenced
[6]
  basal or UVA-regulated expression level of RARβ: no significant effect
[6]; D2O, UVA/βC 0.5 μM
  RARβ fold induction: 2.49 fold
[6]; D2O, UVA/βC 1.5 μM
  RARβ fold induction: 1.69 fold
[6]; D2O, UVA/βC 3 μM
  RARβ fold induction: 2.35 fold
[6]; D2O, βC 0.5 μM
  RARβ fold induction: 1.25 fold
[6]; D2O, βC 1.5 μM
  RARβ fold induction: 2.46 fold
[6]; D2O, βC 3 μM
  RARβ fold induction: 2.79 fold
[6]; H2O, UVA/βC 0.5 μM
  RARβ fold induction: 0.44 fold
[6]; H2O, UVA/βC 1.5 μM
  RARβ fold induction: 0.90 fold
[6]; H2O, UVA/βC 3 μM
  RARβ fold induction: 0.86 fold
[6]; H2O, βC 0.5 μM
  RARβ fold induction: 0.81 fold
[6]; H2O, βC 1.5 μM
  RARβ fold induction: 1.20 fold
[6]; H2O, βC 3 μM
  RARβ fold induction: 1.84 fold
[6]; predominantly in unirradiated cells
  RARβ induction, dose-dependent: non-significantly induced
[7]
  basal or UVA-regulated expression level of RARα: no significant effect
[7]; D2O, UVA/βC 0.5 μM
  RARα fold induction: 1.06 fold
[7]; D2O, UVA/βC 1.5 μM
  RARα fold induction: 1.21 fold
[7]; D2O, UVA/βC 3 μM
  RARα fold induction: 0.52 fold
[7]; D2O, βC 0.5 μM
  RARα fold induction: 1.01 fold
[7]; D2O, βC 1.5 μM
  RARα fold induction: 1.02 fold
[7]; D2O, βC 3 μM
  RARα fold induction: 1.18 fold
[7]; H2O, UVA/βC 0.5 μM
  RARα fold induction: 1.45 fold
[7]; H2O, UVA/βC 1.5 μM
  RARα fold induction: 0.47 fold
[7]; H2O, UVA/βC 3 μM
  RARα fold induction: 0.71 fold
[7]; H2O, βC 0.5 μM
  RARα fold induction: 0.56 fold
[7]; H2O, βC 1.5 μM
  RARα fold induction: 0.67 fold
[7]; H2O, βC 3 μM
  RARα fold induction: 0.55 fold
[8]; 1 or 3 μM β-carotene, 40 hours
  activation of the luciferase reporter: comparable to what was achieved after treating the cells with a combination of all-trans RA and 9-cis RA at 10 nM each
[8]; cells irradiated with UVA prior to measurement
  RARE-dependent gene activation after UVA irradiation, relative to unirradiated: about 70%
